# Experiment: in vitro
# Details: human, hela cells, % viability
row,SMILES,"viability at 28.5 h, 10 µM [%]"
1,Cc1ccc(S(=O)(=O)N2CCN(CC(O)COc3ccc4ccccc4c3)CC2)cc1 (centres unmarked) [CBK266239],97.7
2,CC(=O)Nc1ccc(CNC(=O)c2cc(C)n(CC(F)(F)F)c2C)cc1 [CBK304523],79.2
3,O=C1C(c2ccccc2)=C(c2ccccc2)C(c2ccc(C3=C(c4ccccc4)C(=O)C(c4ccccc4)=C3c3ccccc3)cc2)=C1c1ccccc1 [CBK261220],87.4
4,Cc1nn(C)c(Oc2cccc(C(F)(F)F)c2)c1C(=O)O [CBK000324],102
5,CC1C(=O)N2CCCc3cc(S(=O)(=O)NCc4ccc5c(c4)OCO5)cc1c32 (centres unmarked) [CBK294419],107
6,O=C(O)C1CSC(c2cccnc2)N1 (centres unmarked) [CBK260910],111
7,CCN(CCO)c1ccc(Nc2nc(-c3c(OC)cccc3OC)cn3ccnc23)cc1 [CBK066267],89.9
8,O=S(=O)(CC(F)(F)F)N(c1ccccc1)C1CCNCC1 [CBK165093T],92.6
9,COc1cc(NS(=O)(=O)c2ccc(NC(=O)c3cccc4ccccc34)cc2)nc(OC)n1 [CBK262465],96.6
10,CN1CCC2(CC1)NCCc1c2ccn1S(=O)(=O)c1cccc2c(N(C)C)cccc12 [CBK061633C],105
11,Cc1cc(C(=O)NCCCn2ccnc2)no1 [CBK268145],103
12,Cc1c(C(=O)NCCN2CCCC(C(N)=O)C2)[nH]c2c(F)cccc12 (centres unmarked) [CBK306877],81.7
13,CC(Oc1ccccc1)C(=O)Nc1ccccc1NC(=O)c1ccco1 (centres unmarked) [CBK269636],88.4
14,COc1ccc(N(C)C(=O)N[C@@H]2CC[C@@]3(c4ccc(OC)c(OC)c4)CCN(C)[C@H]3C2)cc1 [CBK045653T],112
15,CC(C)NC(=O)c1sc2ccccc2c1C1CN(Cc2c[nH]nc2C(C)(C)C)CCO1 (centres unmarked) [CBK285535],93.5
16,CCOC(=O)c1c(NC(=O)Cc2ccccc2)sc2c1CCC2 [CBK262309],88.4
17,Cc1nn(C)c(Oc2ccccc2OCc2ccccc2)c1[N+](=O)[O-] [CBK000281],102
18,Cn1cc([C@H]2C[C@@H](O)[C@@H](CO)O2)c(=O)n(C)c1=O [CBK201272],97.3
19,CC12CCC(C(=O)O)(C/C1=N\N)C2(C)C (centres unmarked) [CBK265268],113
20,N#Cc1nccnc1S(=O)(=O)CCO [CBK023595],90.1
21,O=C(CCN1CCOCC1)Nc1ccc(Br)cc1C(=O)c1ccccc1 [CBK263165],93
22,Cc1cc(C(=O)O)cc(S(=O)(=O)N2CCOCC2)c1C [CBK264497],89.5

row,SMILES,"viability at 28.5 h, 10 µM [%]"
1,CC1=NN(c2ccc(Cl)c(Cl)c2)C(=O)C1 [CBK067761],100
2,O=[N+]([O-])c1ccccc1/C=C\C=N\n1c(S)nnc1-c1ccc(Cl)cc1Cl [CBK264405],95
3,CCC(CC)C(=O)N(C)c1c(C)nc2ccc(C(=O)Nc3cccc(NS(C)(=O)=O)c3)cn12 [CBK146526],105
4,CCn1c(CC2CCN(C(=O)CCn3cc(C)cn3)CC2)nn(C)c1=O [CBK307584],89.7
5,O=C(OCc1ccc2sccc2c1)N1CCOCC1 [CBK200163],101
6,Cc1cccc(C(C)(C)C)c1NC(=O)N1CCC(Cc2ccccc2)CC1 [CBK043962],112
7,N#Cc1ccc(CN2C(=O)c3ccccc3C2=O)cc1 [CBK029022],100
8,COCC(C)NC(=O)CCn1ccc2ccncc21 (centres unmarked) [CBK285172],93.8
9,O=C(NCCN1CCOCC1)NCC12CC3CC(C1)CC(c1ccccc1)(C3)C2 [CBK268388],89.1
10,CC1CN(CC(=O)NC(C)(C)c2ccccc2)CC(C)N1 (centres unmarked) [CBK051693],83.8
11,Cc1ccc(C(=O)NCCNS(=O)(=O)c2ccccc2)cc1 [CBK264145],88.8
12,O=C(CC1NCCNC1=O)Nc1ccc2c(c1)OCCO2 (centres unmarked) [CBK266837],99.3
13,CC(C)NC(=O)N1CCN(Cc2nc(-c3ccoc3)no2)CC1 [CBK306248],88.2
14,C=CCOC(=O)C1=C(C)N=C2SCCC(=O)N2C1c1ccc(SC)cc1 (centres unmarked) [CBK073405],93.5
15,COc1cc2oc(=O)c(CC(=O)N[C@@H](CC(C)C)C(=O)O)c(C)c2cc1Cl [CBK286772],104
16,O=C(CSc1nncc(=O)[nH]1)NCc1ccccc1 [CBK270246],85.3
17,CC(=O)c1ccc(-c2nc(-c3cccc(OC(F)(F)F)c3)cnc2N)cc1 [CBK064105],103
18,CC(=O)NCCSc1cc(C(F)(F)F)ccn1 [CBK105297],107
19,O=S(=O)(c1cccc(C(F)(F)F)c1)n1ccc2c(CN3CCC[C@@H]3CO)cccc21 [CBK116167T],96.8
20,CCCCSc1nc(N)cc(N2CCCN(C(=O)C3CCCO3)CC2)n1 (centres unmarked) [CBK307209],86.8
21,CN(Cc1nc2c(s1)CCCC2)C(=O)CCn1nnc2ccccc21 [CBK306704],107
22,C=C(C)Cn1c(-c2ccccc2C)nnc1S(=O)(=O)CC(C)C [CBK200074],80

row,SMILES,"viability at 28.5 h, 10 µM [%]"
1,COc1cc(Nc2cccc3c2C(=O)c2ccccc2C3=O)c(OC)cc1C=O [CBK262677],109
2,COc1ccc(-c2nnc3ccc(SC(C)C)nn23)cc1OC [CBK287526],101
3,COc1cccc2c3c([nH]c12)CCCC3 [CBK000331],95.8
4,COCn1nccc1S(=O)(=O)NCCc1cn2ccccc2n1 [CBK304060],80.6
5,CCn1nc(C)c(-c2cncn2CCn2nc(C)c(Cl)c2C)c1C [CBK281768],90.4
6,Cc1cc(C)nc(NC(=O)OCCc2ccncc2)c1 [CBK138233],93.9
7,O=C(Nc1ccc2oc(-c3cccnc3)nc2c1)c1cc([N+](=O)[O-])ccc1N1CCOCC1 [CBK268674],95
8,Cc1cc(C)n(CCCC(=O)N2CCC3(CCCO3)CC2)n1 [CBK304397],102
9,OC[C@H]1O[C@@H](n2cnc3c(Cl)nccc32)C[C@H]1O [CBK201273],88.5
10,N#CCCN(C(=O)NCCOc1ccccc1)C1CCCCC1 [CBK156374],94.9
11,Cc1ccc(C)c(C(=O)C2=C(O)C(=O)N(CCN(C)C)C2c2cccc(Cl)c2)c1 (centres unmarked) [CBK265495],91.4
12,Cc1cc(N2CCC(c3cc(CCOc4ccc(Cl)cc4)[nH]n3)C2)nc(C)n1 (centres unmarked) [CBK286119],98.1
13,CCCCNC(=O)c1ccc2nc(C)c(N(C)CC3CCCCC3)n2c1 [CBK145913],99.6
14,Cc1noc(C)c1NC(=O)c1cscn1 [CBK200397],95.2
15,Cc1ccc(C(=O)NC(=S)Nc2ccc(C(=O)O)c(Cl)c2)cc1Cl [CBK265068],95
16,COc1cc(Nc2nc(-c3cccc4ccccc34)cn3ccnc23)cc(OC)c1OC [CBK036608],96.1
17,Cc1cc(Cl)c(OCCNCCN)c(Br)c1 [CBK265079],91.5
18,CC(=O)Nc1ccc(Nc2cc(-c3ccsc3)ncn2)cc1 [CBK090717],96.8
19,O=C(NCc1ccc(OC(F)(F)F)cc1)c1cnoc1-c1ccc(Br)cc1 [CBK154885],100
20,CC(=O)N1CCN(c2ccc(NC(=O)c3cccc4c(Br)cccc34)cc2Cl)CC1 [CBK269624],93.8
21,CC(C)(C)c1cc(CCCOC(=O)CNc2ccccc2)cc(C(C)(C)C)c1O [CBK261939],101
22,Cc1cc(COc2ccnc(N3CCCN(CCCC#N)CC3)n2)no1 [CBK084144],96.8

row,SMILES,"viability at 28.5 h, 10 µM [%]"
1,CC(C)(N)CN(Cc1ccccc1)C(=O)/C=C/c1ccccc1 [CBK013891T],90.8
2,O=C(c1cnccn1)N1CCC(Cc2ccccc2)CC1 [CBK200181],92.6
3,COCCCn1c(=O)[nH]c2ncc(-c3cccnc3)nc21 [CBK064929],104
4,Cc1ccc(NC(=O)/C=C/c2ccc3c(c2)OCO3)c(NC(=O)/C=C/c2ccc3c(c2)OCO3)c1 [CBK265423],114
5,O=c1[nH]c(=O)c2cc(S(=O)(=O)NCC3CCN(Cc4ccccc4)C3)ccc2[nH]1 (centres unmarked) [CBK286384],90
6,COc1ccc(CN2CCC(c3ncc(C(=O)Nc4ccc(F)cc4)c(C)n3)CC2)cc1 [CBK285629],101
7,Cc1noc(C(C)C)c1C(=O)NC(C)c1cccc(Br)c1 (centres unmarked) [CBK296618],92.8
8,O=C(O)CC1C(=O)NCCN1Cc1ccc(-c2ccccc2)cc1 (centres unmarked) [CBK269812],91
9,O=C(O)C1CCCN1S(=O)(=O)c1ccc(Cl)c(Cl)c1 (centres unmarked) [CBK217856],99.1
10,O=C(c1ccc(F)cc1)N1CCC(O)(c2ccccn2)CC1 [CBK283669],92.9
11,CN1C[C@@H](NC(=O)Nc2ccccc2)C[C@H]1c1nc(-c2cnccn2)no1 [CBK288851],87.5
12,CCOC(=O)N1CCN(C(=O)c2c(C)nn(C)c2Cl)CC1 [CBK304522],92.6
13,CCc1cc(OCCCSc2nc(C)cc(O)n2)ccc1Cl [CBK267364],106
14,CCOC(=O)c1sc2nc(C(C)N3CCOCC3)[nH]c(=O)c2c1C (centres unmarked) [CBK305862],82.5
15,Cc1oc2nc(SCC(=O)NCc3cccnc3)nc(N)c2c1C [CBK266178],106
16,O=C(/C=C/c1ccccc1)NC(=S)Nc1cccc(-c2nc3ncccc3o2)c1 [CBK263742],103
17,COc1ccccc1OCCNC1CCc2cc(Cl)ccc2C1 (centres unmarked) [CBK013067C],93.2
18,CC(C)n1ccnc1CNc1cccc(OCC(=O)N2CCCC2)c1 [CBK305377],97
19,Cc1ccc(C(=O)c2coc3ccc(O)cc23)cc1 [CBK115557],89.1
20,CC(C)C(=O)N1CC2(CCN(Cc3cc(=O)[nH]c(=O)[nH]3)CC2)c2ccccc21 [CBK144602T],107
21,N#Cc1ccc(CNC(=O)c2ccc3[nH]ccc3c2)cc1 [CBK149078],87.8
22,O=C(NC1CCCCC1)c1s/c(=N/O)nnc1Nc1ccccc1 [CBK022275],93.8

# Same assay, conditions: human, hela cells, % viability, bulk resorufin, single well
row,SMILES,"viability at 28.5 h, 10 µM [%]"
1,CSc1nnc(C(N)Cc2c[nH]c3ccccc23)o1 (centres unmarked) [CBK269950C],89.8
